# Source: US9498465B2, “Topical compositions in the form of a gel containing a particular solubilized retinoid” (GALDERMA RESEARCH & DEVELOPMENT, priority 2012, dated 2016)
# Assays:
# Type in all cases: physicochemical
# [1] = Stability of compound A in its principal solvents and cosolvents, determined by HPLC
# [2] = Maximum solubility in hydrophilic excipients, determined by HPLC
# Protocol: In order to produce an aqueous-glycolic gel containing an amount of ethanol of less than 30%, in which compound A is solubilized, pre-formulation studies were carried out in order to reveal the excipients enabling good solubilization and also good stability of the active agent. • (1) List of the hydrophilic excipients or mixture of hydrophilic excipients in which maximum solubility was determined by HPLC: […]
# [3] = Tests introducing ST-cyclomethicone 5NF: recrystallization of compound A
# Protocol: In order to obtain an acceptable feel for acne (non-greasy, non-tacky) while at the same time keeping good solubility of compound A in the formula, tests introducing ST-cyclomethicone 5 were carried out, in the knowledge that ST-cyclomethicone 5NF is a nonsolvent of compound A and that this addition may therefore cause recrystallization of compound A: […]
smiles,measurement,setting,value
"CC(C)(C)c1cc(-c2cc(-c3ccc(C(=O)O)cc3)ccc2OCCO)ccc1N1CCCC1 [Compound A, 3″-tert-butyl-4′-(2-hydroxyethoxy)-4″-pyrrolidin-1-yl[1,1′;3′,1″]terphenyl-4-carboxylic acid]",Stability results,[1]; 0.001% in Hexylene Glycol,Unstable
same,Stability results,[1]; 0.005% in Ethanol 95-96%,Stable
same,Stability results,"[1]; 0.005% in Ethanol 95-96%, listed as compound A",stable
same,Stability results,[1]; 0.01% in Benzyl Alcohol,Unstable
same,Stability results,[1]; 0.03% in Arlasolve DMI (Dimethyl Isosorbide),Unstable
same,Stability results,[1]; 0.03% in Hydrolite 5P (Pentylene glycol),Unstable
same,Stability results,[1]; 0.03% in Pharmasolve (Methyl Pyrolidone),Unstable
same,Stability results,[1]; 0.03% in Transcutol (Ethoxy diglycol),Unstable
same,Stability results,[1]; 0.05% in Phenoxetol (Phenoxyethanol),Stable
same,Stability results,"[1]; 0.05% in Phenoxetol (Phenoxyethanol), listed as compound A",stable
same,Stability results,"[1]; 0.05% in Propylene Glycol, listed as COMPOUND A",Stable
same,Stability results,"[1]; 0.05% in Propylene Glycol, listed as compound A",stable
same,Stability results,"[1]; 0.3% in Dipropylene Glycol Care (Dipropylene Glycol), listed as COMPOUND A",Stable
same,Stability results,"[1]; 0.3% in Dipropylene Glycol Care (Dipropylene Glycol), listed as compound A",stable
same,Stability results,[1]; 0.3% in PEG 400 (Poly Ethylene Glycol),Unstable
same,Maximum solubility as %,[2]; in Arlasolve DMI (Dimethyl Isosorbide),0.4%
same,Maximum solubility as %,[2]; in Benzyl Alcohol,2.3880%
same,Maximum solubility as %,[2]; in Dipropylene Glycol Care (Dipropylene Glycol),0.4%
same,Maximum solubility as %,[2]; in Ethanol 95-96%,0.92%
same,Maximum solubility as %,[2]; in Glycerine (Glycerin),0.002%
same,Maximum solubility as %,[2]; in Hexylene Glycol,0.4%
same,Maximum solubility as %,[2]; in Hydrolite 5P (Pentylene glycol),0.482%
same,Maximum solubility as %,[2]; in PEG 400 (Peg-8),1.52%
same,Maximum solubility as %,[2]; in Pharmasolve (Methyl Pyrolidone),4.84%
same,Maximum solubility as %,[2]; in Phenoxetol (Phenoxyethanol),1.957%
same,Maximum solubility as %,[2]; in Propylene Glycol,0.111%
same,Maximum solubility as %,[2]; in Transcutol (Ethoxy diglycol),4.17%
same,Solubility (in words),[2]; in glycerine,virtually insoluble
same,Recrystallization of COMPOUND A,[3]; formula with ST-Cyclomethicone 5NF 0%,No
same,Recrystallization of COMPOUND A,[3]; formula with ST-Cyclomethicone 5NF 2%,No
same,Recrystallization of COMPOUND A,[3]; formula with ST-Cyclomethicone 5NF 5%,Re-
same,Solubility (in words),[3]; in ST-cyclomethicone 5NF,nonsolvent
